In patent US20240116946A1 (Gilead Sciences, Inc., priority 2022, published 2024):
Read-outs that look alike come from different tables or passages of the source.

What was measured:
SARS-CoV-2-NLuc = experiment: microbe, parasite or virus in culture; format: cell-based, SARS Coronavirus 2
[1] = target: recombinant SARS-CoV-2 Main protease (Mpro) (Severe acute respiratory syndrome coronavirus 2 (2019-nCoV) (SARS-CoV-2), UniProt P0DTD1); experiment: Cov Mpro Biochemical IC50 Assay; conditions: read-out: MPro IC50
[2] = recombinant SARS-CoV-2 Mpro 7.5 nM, fluorogenic peptide substrate 40 μM
[3] = Severe acute respiratory syndrome coronavirus, 48 h, read-out: MPro EC50
[4] = Severe acute respiratory syndrome coronavirus, 48 h; read-out: MPro EC50
[5] = recombinant SARS-CoV-2 Mpro, fluorogenic peptide substrate

SMILES	EC50 (SARS-CoV-2-NLuc; read-out: MPro EC50)	IC50 [1, 2]	EC50 (SARS-CoV-2-NLuc; [3])	EC50 (SARS-CoV-2-NLuc; [4])	IC50 [1, 5]
COc1cc(-c2cc3[nH]c(=O)n(-c4cncc5cccnc45)c(=O)c3s2)c(Cl)cc1F (single isomer, unassigned) [Example 1008, 6-(2-chloro-4-fluoro-5-methoxy-phenyl)-3-(1,6-naphthyridin-8-yl)-1H-thieno[3,2-d]pyrimidine-2,4-dione]	0.138 µM	0.128 µM			
Cc1c2c(-n3c(=O)c4sc(-c5ccc(F)cc5Cl)cc4n(CCC#N)c3=O)cncc2nn1C (single isomer, unassigned) [Example 971, 3-(6-(2-chloro-4-fluorophenyl)-3-(2,3-dimethyl-2H-pyrazolo[3,4-c]pyridin-4-yl)-2,4-dioxo-3,4-dihydrothieno[3,2-d]pyrimidin-1(2H)-yl)propanenitrile]	0.0558 µM	0.013 µM			
COc1cc(-c2cc3c(s2)c(=O)n(-c2cncc4[nH]nc(C)c24)c(=O)n3CCC#N)c(Cl)cc1F (single isomer, unassigned) [Example 959, 3-(6-(2-chloro-4-fluoro-5-methoxyphenyl)-3-(3-methyl-1H-pyrazolo[3,4-c]pyridin-4-yl)-2,4-dioxo-3,4-dihydrothieno[3,2-d]pyrimidin-1(2H)-yl)propanenitrile]	0.00586 µM	0.00511 µM			
O=c1[nH]c2cc(-c3ccccc3Cl)sc2c(=O)n1-c1cncc2c1cnn2CC(F)(F)F [Example 492]		> 50 µM	4.84 µM		
O=c1[nH]c2cc(-c3c(Cl)cccc3-c3cc(C(F)(F)F)c4ncnn4c3)ccc2c(=O)n1-c1cncc2ccccc12 [Example 145]				0.043 µM	0.0239 µM
COc1cc(-c2cc3c(s2)c(=O)n(-c2cncc4nc(C)sc24)c(=O)n3CCC#N)c(Cl)cc1F [Example 941]		0.00753 µM	0.0401 µM		
COc1cc(-c2cc3c(s2)c(=O)n(-c2cnc(F)c(C)c2)c(=O)n3CCC#N)c(Cl)cc1F [Example 891]		0.00938 µM	0.0296 µM		
COc1cc(-c2cc3c(s2)c(=O)n(-c2cncc4cnn(C)c24)c(=O)n3CCC#N)c(C)cc1Cl [Example 1018]		0.015 µM	0.0192 µM		
N#CCCn1c(=O)n(-c2cncc(Cl)c2)c(=O)c2sc(-c3ccccc3C#N)cc21 [Example 863]		0.0133 µM		0.0376 µM	
COc1cc(-c2cc3[nH]c(=O)n(-c4cncc5nn(CC(F)(F)F)c(C)c45)c(=O)c3s2)c(Cl)cc1F [Example 740]		0.0479 µM	0.103 µM		
COc1cc(-c2cc3c(s2)c(=O)n(-c2nncc4ccccc24)c(=O)n3CCC#N)c(Cl)cc1F [Example 929]		0.00572 µM	0.00276 µM		
COc1cc(-c2cc3c(s2)c(=O)n(-c2cncc4ncn(C)c24)c(=O)n3CCC#N)c(Cl)cc1F [Example 843]		0.00543 µM	0.0132 µM		
COc1cc(-c2ccc3c(=O)n(-c4cncc5ccccc45)c(=O)[nH]c3c2)c(Cl)cc1F [Example 299]			0.0361 µM		0.0724 µM
COc1ccc(Cl)c(-c2cc3[nH]c(=O)n(-c4cncc5ncsc45)c(=O)c3s2)c1 [Example 486]	0.0294 µM	0.0059 µM			
Cn1nnc2cncc(-n3c(=O)c4sc(-c5ccccc5Cl)cc4n(CCC#N)c3=O)c21 [Example 772]		0.0154 µM		0.0469 µM	
COc1ccc(Cl)c(-c2ccc3c(=O)n(-c4cncc5ccc(F)cc45)c(=O)[nH]c3c2)c1 [Example 371]				0.108 µM	0.0559 µM
O=c1[nH]c2cc(-c3c(Cl)cccc3CO)ccc2c(=O)n1-c1cncc2ccccc12 [Example 99]			0.492 µM		0.216 µM
COc1cc(-c2cc3c(s2)c(=O)n(-c2cncc4nc(C5CCC5)n(C)c24)c(=O)n3CCC#N)c(Cl)cc1F [Example 755]		0.0333 µM	0.243 µM		
COCCn1ncc2cncc(-n3c(=O)[nH]c4cc(-c5cc(OC)c(F)cc5Cl)sc4c3=O)c21 [Example 733]		0.0152 µM	0.0258 µM		
COc1cc(-c2cc3[nH]c(=O)n(-c4cncc5cccnc45)c(=O)c3s2)c(Cl)cc1F (single isomer, unassigned) [Example 1009, 6-(2-chloro-4-fluoro-5-methoxy-phenyl)-3-(1,6-naphthyridin-8-yl)-1H-thieno[3,2-d]pyrimidine-2,4-dione]	0.00396 µM	0.00399 µM			
COc1ccc(C#N)c(-c2cc3[nH]c(=O)n(-c4cncc5ccc(N6CCOCC6)cc45)c(=O)c3s2)c1 [Example 433]		0.0078 µM	0.0695 µM		
Cn1cc(-c2cccc(Cl)c2-c2cc3[nH]c(=O)n(-c4cncc5ccccc45)c(=O)c3s2)c(C2CC2)n1 [Example 527]		0.00322 µM	0.00145 µM		
COc1ccc(Cl)c(-c2cc3[nH]c(=O)n(-c4cncc5ccc(N6CCOCC6)nc45)c(=O)c3s2)c1 [Example 457]		< 0.00254 µM	< 0.00604 µM		
COc1cc(-c2cc3c(s2)c(=O)n(-c2cncc4[nH]nc(C)c24)c(=O)n3CCC#N)c(Cl)cc1F [Example 768, 3-(6-(2-chloro-4-fluoro-5-methoxyphenyl)-3-(3-methyl-1H-pyrazolo[3,4-c]pyridin-4-yl)-2,4-dioxo-3,4-dihydrothieno[3,2-d]pyrimidin-1(2H)-yl)propanenitrile]		0.00526 µM	0.00716 µM		

SMILES	EC50 (SARS-CoV-2-NLuc; read-out: MPro EC50)	IC50 [1, 2]	EC50 (SARS-CoV-2-NLuc; [3])	EC50 (SARS-CoV-2-NLuc; [4])	IC50 [1, 5]
Cc1cc(-c2cccc(Cl)c2-c2ccc3c(=O)n(-c4cncc5ccccc45)c(=O)[nH]c3c2)cnn1 [Example 234]			0.0212 µM		< 0.00567 µM
COc1cc(-c2cc3[nH]c(=O)n(-c4cncc5ccccc45)c(=O)c3s2)c(C)cn1 [Example 719]		0.364 µM	0.938 µM		
COc1cc(-c2cc3c(s2)c(=O)n(-c2cncc4nn(C)c(C)c24)c(=O)n3CCC#N)c(C#N)cc1F [Example 895]		0.00843 µM	0.218 µM		
Cc1cc(-c2cccc(Cl)c2-c2ccc3c(=O)n(-c4cncc5ccccc45)c(=O)[nH]c3c2)cn2nnnc12 [Example 245]			0.0204 µM		0.0132 µM
CCn1ncc2cncc(-n3c(=O)[nH]c4cc(-c5cc(OC)c(F)cc5Cl)sc4c3=O)c21 [Example 732]		0.0151 µM	0.0157 µM		
COc1cc(-c2cc3[nH]c(=O)n(-c4cncc5c4n(C)c(=O)n5C)c(=O)c3s2)c(Cl)cc1F [Example 750]		0.00776 µM	0.0366 µM		
COc1cc(-c2cc3[nH]c(=O)n(-c4cncc5cccc(Cl)c45)c(=O)c3s2)c(Cl)cc1F [Example 1075]	0.0117 µM	0.0148 µM			
COc1cc(-c2cc3c(s2)c(=O)n(-c2cncc(N4CCOCC4)c2)c(=O)n3CCC#N)c(Cl)cc1F [Example 873]		0.263 µM	> 1 µM		
COc1ccc(Cl)c(-c2cc3[nH]c(=O)n(-c4cncc5c4ccn5C)c(=O)c3s2)c1 [Example 489]		0.00263 µM	0.0204 µM		
NS(=O)(=O)c1cccc(-c2cccc(Cl)c2-c2ccc3c(=O)n(-c4cncc5ccccc45)c(=O)[nH]c3c2)c1 [Example 270]			0.0853 µM		0.0139 µM
O=c1[nH]c2nc(-c3ccccc3)ccc2c(=O)n1-c1cncc2ccccc12 [Example 31]				> 50 µM	14.8 µM
NC(=O)c1ccccc1-c1cc2[nH]c(=O)n(-c3cncc4ccccc34)c(=O)c2cc1F [Example 68]			43.8 µM		1.01 µM
O=c1[nH]c2cc(-c3c(Cl)cccc3-c3ccccc3)ccc2c(=O)n1-c1cncc2ccccc12 [Example 103]			0.0834 µM		0.388 µM
COc1cc(-c2cc3c(s2)c(=O)n(-c2cncc4cccnc24)c(=O)n3CCC#N)c(Cl)cc1F (single isomer, unassigned) [Example 1037, 3-(6-(2-chloro-4-fluoro-5-methoxyphenyl)-3-(1,6-naphthyridin-8-yl)-2,4-dioxo-3,4-dihydrothieno[3,2-d]pyrimidin-1(2H)-yl)propanenitrile]	0.362 µM	0.544 µM			
O=c1c2sc(-c3ncco3)cc2n(CC2CCCC2)c(=O)n1-c1cncc2ccccc12 [Example 170, 1-(cyclopentylmethyl)-3-(isoquinolin-4-yl)-6-(oxazol-2-yl)thieno[3,2-d]pyrimidine-2,4(1H,3H)-dione]			0.421 µM		0.192 µM
Cc1cnc(F)c(-n2c(=O)c3sc(-c4ccccc4Cl)cc3n(CCC#N)c2=O)c1 [Example 771]		0.00368 µM		0.00603 µM	
Cn1cnc2cncc(-n3c(=O)c4sc(-c5ccc(F)cc5Cl)cc4n(CCC#N)c3=O)c21 [Example 851]		0.0223 µM		0.0753 µM	
Cc1ccc(-c2cc3[nH]c(=O)n(-c4cncc5ccccc45)c(=O)c3s2)c(Cl)n1 [Example 289]			0.119 µM		0.0417 µM
COc1cnc(Cl)c(-c2cc3[nH]c(=O)n(-c4cncc(C5CC5)c4)c(=O)c3s2)c1 [Example 369]				0.111 µM	0.00923 µM
COc1cnc(Cl)c(-c2cc3c(s2)c(=O)n(-c2cncc4cccc(F)c24)c(=O)n3CCC#N)c1 (single isomer, unassigned) [Example 1094, 3-(6-(2-chloro-5-methoxypyridin-3-yl)-3-(5-fluoroisoquinolin-4-yl)-2,4-dioxo-3,4-dihydrothieno[3,2-d]pyrimidin-1(2H)-yl)propanenitrile]	0.00971 µM	0.00327 µM			
CC(C)Oc1cc(F)ccc1-c1cc2[nH]c(=O)n(-c3cncc4ccccc34)c(=O)c2s1 [Example 14]			0.0799 µM		0.132 µM
O=c1[nH]c2cc(-c3ccc(F)cc3Cl)sc2c(=O)n1-c1cncc2ccccc12 [Example 13]			0.0424 µM		0.0171 µM
Cc1c(Cl)cncc1-n1c(=O)[nH]c2cc(-c3ccccc3Cl)ccc2c1=O [Example 140, 3-(5-chloro-4-methylpyridin-3-yl)-7-(2-chlorophenyl)quinazoline-2,4(1H,3H)-dione]			0.429 µM		> 100 µM
